From patent US20120214736A1, “COMPOSITIONS AND METHODS FOR THE MODULATION OF JNK PROTEINS” (Isis Pharmaceuticals, Inc., priority 2006, published 2012)
In the oligonucleotide strings, read from the 5' end, every base follows the letter of its sugar. An asterisk marks phosphorothioate; unmarked linkages are phosphodiester. Other units and linkages are bracketed, terminal groups are in braces. A string of capitals states the bases alone. e = 2'-O-(2-methoxyethyl) (MOE); [5mC] = 5-methylcytosine; d = 2'-deoxy (DNA)

Experiments:
JNK1 mRNA = assay: Northern assay, JNK1 mRNA expression in A549 cells; assay type: cell-based, human; settings: for response of JNK1 mRNA levels in A549 cells (dose and sequence dependence): 50, 100, 200 and 400 nM; for RNA % Inhibition: 300 nM for initial 20 hours then 200 nM for 4 hours
Description: (§1) In order to evaluate the activity of potential JNK-modulating oligonucleotides, human lung carcinoma cell line A549 (American Type Culture Collection, Rockville, Md. No. ATCC CCL-185) cells or other cell lines as indicated in the Examples, were grown and treated with oligonucleotides or control solutions as detailed below. After harvesting, cellular extracts were prepared and examined for specific JNK mRNA levels or JNK protein levels (i.e., Northern or Western assays, respectively). In all cases, “% expression” refers to the amount of JNK-specific signal in an oligonucleotide-treated cell relative to an untreated cell (or a cell treated with a control solution that lacks oligonucleotide).
(§2) Northern Assays The mRNA expression of each JNK protein was determined by using a nucleic acid probe specifically hybridizable thereto. Nucleic acid probes specific for JNK1, JNK2 and JNK3 are described in Examples 3, 4 and 5, respectively. The probes were radiolabelled by means well known in the art (see, e.g., Short Protocols in Molecular Biology, 2nd Ed., Ausubel et al., Eds., John Wiley & Sons, New York, 1992, pages 3-11 to 2-3-44 and 4-17 to 4-18; Ruth, Chapter 6 In: Methods in Molecular Biology, Vol. 26: Protocols for Oligonucleotide Conjugates, Agrawal, ed., Humana Press Inc., Totowa, N.J., 1994, pages 167-185; and Chapter 10 In: Molecular Cloning: A Laboratory Manual, 2nd Ed., Sambrook et al., Eds., pages 10.1-10.70). The blots were stripped and reprobed with a ^32P-labeled glyceraldehyde 3-phosphate dehydrogenase (G3PDH) probe (Clontech Laboratories, Inc., Palo Alto, Calif.) in order to confirm equal loading of RNA and to allow the levels of JNK transcripts to be normalized with regard to the G3PDH signals.
(§3) A549 cells were grown in T-75 flasks until 80-90% confluent. At this time, the cells were washed twice with 10 mL of media (DMEM), followed by the addition of 5 mL of DMEM containing 20 ┘g/mL of LIPOFECTIN™ (i.e., 1:1 (w/w) DOTMA/DOPE, Life Technologies, Gaithersburg, Md.; DOTMA=N-[1-(2,3-dioleyoxy)propyl]-N,N,N-trimethylammonium chloride; DOPE=dioleoyl phosphatidylethanolamine). The oligonucleotides were added from a 10 μM stock solution to a final concentration of 400 nM, and the two solutions were mixed by swirling the flasks. As a control, cells were treated with LIPOFECTIN™ without oligonucleotide under the same conditions and for the same times as the oligonucleotide-treated samples. After 4 hours at 37° C., the medium was replaced with fresh DMEM containing 10% serum. The cells were allowed to recover for 18 hours. Total cellular RNA was then extracted in guanidinium, subject to gel electrophoresis and transferred to a filter according to techniques known in the art (see, e.g., Chapter 7 In: Molecular Cloning: A Laboratory Manual, 2nd Ed., Sambrook et al., Eds., pages 7.1-7.87, and Short Protocols in Molecular Biology, 2nd Ed., Ausubel et al., Eds., John Wiley & Sons, New York, 1992, pages 2-24 to 2-30 and 4-14 to 4-29). Filters were typically hybridized overnight to a probe specific for the particular JNK gene of interest in hybridization buffer (25 mM KPO4, pH 7.4; 5×SSC; 5×Denhardt's solution, 100 µg/ml Salmon sperm DNA and 50% formamide) (Alahari et al., Nucl. Acids Res., 1993, 21, 4079). This was followed by two washes with 1×SSC, 0.1% SDS and two washes with 0.25×SSC, 0.1% SDS. Hybridizing bands were visualized by exposure to X-OMAT AR film and quantitated using a PHOSPHORIMAGER™ essentially according to the manufacturer's instructions (Molecular Dynamics, Sunnyvale, Calif.).
JNK1-specific probes: In initial screenings of a set of oligonucleotides derived from the JNK1 sequence (Table 2) for biological activity, a cDNA clone of JNK1 (Derijard et al., Cell, 1994, 76, 1025) was radiolabeled and used as a JNK1-specific probe in Northern blots. Alternatively, however, one or more of the oligonucleotides of Table 1 is detectably labeled and used as a JNK1-specific probe. […]

JNK2 mRNA = assay: Northern assay, JNK2 mRNA expression in A549 cells; assay type: cell-based, human; settings: for response of JNK2 mRNA levels in A549 cells (dose and sequence dependence): 50, 100, 200 and 400 nM
Description: as §1, §2
as §3, with “This was followed by two washes with 1×SSC, 0.1% SDS and two washes with 0.25×SSC, 0.1% SDS.” left out, “Calif.). […]” for “Calif.).”

[1] = test system: TNFa-induced JNK activity; assay: TNFa-induced JNK activity in HUVEC (GST-c-Jun phosphorylation); assay type: cell-based, human; settings: 100 nM, 5 ng/ml TNFa 15 minutes, compared to a control oligonucleotide
Description: Human umbilical vein endothelial cells (HUVEC, Clonetics, San Diego Calif.) were incubated with oligonucleotide with LipofectinJ in Opti-MEMJ for 4 hours at 37° C./5% CO2. The medium was then replaced with 1% FBS/EGM (Clonetics, Walkersville Md.) and incubated for 24 hours at 37° C./5% CO2. Cells were treated with 5 ng/ml TNFa for 15 minutes before lysis. JNK activity was determined by incubating lysates (normalized for protein) with immobilized GST-c-Jun fusion protein (e.g., New England Biolabs, Beverly, Mass.)+^32P-ATP. GST-c-Jun beads were washed and SDS-PAGE sample buffer was added. Samples were resolved by SDS-PAGE and phosphorylated c-Jun was visualized using a Molecular Dynamics PhosphorImager.

rat JNK2 mRNA = assay: Northern assay, rat JNK2 (p54a) mRNA levels in A10 aortic smooth muscle cells; assay type: cell-based; settings: Northern assays
Description: (§4) In order to study the role of JNK proteins in animal models, oligonucleotides targeted to the genes encoding JNK1, JNK2 and JNK3 of Rattus norvegicus were prepared. These oligonucleotides are 2′-methoxyethoxy, phosphodiester/2′-hydroxyl, phosphorothioate/2′-methoxyethoxy, phosphodiester “gapmers” in which every cytosine residue is 5-methylcytosine (m5c). These antisense compounds were synthesized according to the methods of the disclosure. Certain of these oligonucleotides are additionally specifically hybridizable to JNK genes from other species as indicated herein. The oligonucleotides described in this Example were tested for their ability to modulate rat JNK mRNA levels essentially according to the methods described in the preceding Examples, with the exceptions that the cell line used was rat A10 aortic smooth muscle cells (ATCC No. ATCC CRL-1476) and the probes used were specific for rat JNK1, JNK2 or JNK3 (see infra). A10 cells were grown and treated with oligonucleotides essentially as described by (Cioffi et al. Mol. Pharmacol., 1997, 51, 383).
(§5) These antisense compounds were tested for their ability to modulate levels of (JNK1) and (JNK2) mRNA in A10 cells via Northern assays. Due to the high degree of sequence identity between the human and rat genes, radiolabeled human JNK1 (Example 3) and JNK2 (Example 4) cDNAs functioned as specific probes for the rat homologs. […]

rat JNK1 mRNA = assay: Northern assay, rat JNK1 mRNA levels in A10 aortic smooth muscle cells; assay type: cell-based; settings: Northern assays
Description: as §4, §5

human JNK2 mRNA = assay: Northern analysis, human JNK2 mRNA in Jurkat cells (electroporation, dose response); assay type: cell-based; settings: Jurkat cells
Description: Jurkat cells were routinely cultured in RPMI Medium 1640 (Gibco/Life Technologies, Gaithersburg, Md.) supplemented with 20% fetal calf serum (Gibco/Life Technologies, Gaithersburg, Md.). Cells were routinely passaged by aspirating media that contained excess cells and replenishing with new media.
For electroporation, cells were diluted to 28×10^6 cells/mL and placed into 1 mm electroporation cuvettes. Electroporation is performed by treating with 1-20 μM oligonucleotide, at 160 Volts for 6 msec. The entire electroporated samples are then placed into 5 mL of 10% FBS/RPMI Medium 1640 in 100 mm plates. Plates are then left overnight at 37° C./5% CO2.
Each sample is then transferred to 15 mL conical tubes and spun down at 1200 rpm for 5 minutes followed by aspiration of the supernatant. Cells are then suspended in 5 mL PBS followed by a second centrifugation at 1200 rpm for 5 minutes followed by aspiration of the supernatant. Cells are then washed and lysed. Following the lysis step, total cellular RNA is then isolated using the RNEASY kit (Qiagen, Santa Clarita, Calif.) as described in other examples herein.
In accordance with the present invention, Jurkat cells were treated by electroporation with 1, 5 or 20 uM ISIS 101759 or the control oligonucleotide and mRNA levels of human JNK2 were quantitated by Northern analysis.

## 12539 (antisense CTCTCTGTAGGCCCGCTTGG; DNA, all phosphorothioate, methylation of C not given here) [compound 12539]
JNK1 mRNA
  response of JNK1 mRNA levels in A549 cells (dose and sequence dependence): dependent on dose in an approximately linear fashion
JNK1 mRNA; t = 48 h
  RNA % Inhibition: 93.3%
JNK1 mRNA; t = 72 h
  RNA % Inhibition: 88.3%
JNK2 mRNA
  response of JNK2 mRNA levels in A549 cells (dose and sequence dependence): dependent on dose in an approximately linear fashion

## 12560 (antisense dG*dT*dC*dC*dG*dG*dG*dC*dC*dA*dG*dG*dC*dC*dA*dA*dA*dG*dT*dC) [compound 12560]
JNK2 mRNA; for at least about 12 hours following the 4 hour treatment
  level of inhibition of JNK2: greater than or equal to 80%
JNK2 mRNA; up to at least about t=48 h
  level of inhibition of JNK2: greater than or equal to 60%

## 14318 (sense dG*dA*dC*dT*dT*dT*dG*dG*dC*dC*dT*dG*dG*dC*dC*dC*dG*dG*dA*dC) [compound 14318]
JNK2 mRNA
  response of JNK2 mRNA levels in A549 cells (dose and sequence dependence): neither of the control oligonucleotides effect any consistent response

## 14319 (dG*dT*dG*dC*dG*dC*dG*dC*dG*dA*dG*dC*dC*dC*dG*dA*dA*dA*dT*dC) [compound 14319]
JNK2 mRNA
  response of JNK2 mRNA levels in A549 cells (dose and sequence dependence): neither of the control oligonucleotides effect any consistent response

## 14320 (sense CCAAGCGGGCCTACAGAGAG; DNA, all phosphorothioate, methylation of C not given here) [compound 14320]
JNK1 mRNA
  response of JNK1 mRNA levels in A549 cells (dose and sequence dependence): neither of the control oligonucleotides effect any consistent response

## 14321 (CTTTCCGTTGGACCCCTGGG; DNA, all phosphorothioate, methylation of C not given here) [compound 14321]
JNK1 mRNA
  response of JNK1 mRNA levels in A549 cells (dose and sequence dependence): neither of the control oligonucleotides effect any consistent response

## 15346 (antisense CTCTCTGTAGGCCCGCTTGG; gapmer: P=S, 2'-MOE wings, 2'-deoxy core, chemistry not fully specified) [compound 15346]
JNK1 mRNA; t = 48 h
  RNA % Inhibition: 95.7%
JNK1 mRNA; t = 72 h
  RNA % Inhibition: 89.4%

## 15353 (antisense GTCCGGGCCAGGCCAAAGTC; P=S gapmer, 2'-MOE wings, chemistry not fully specified) [compound 15353]
[1]
  inhibition of TNFa-induced JNK activity: approximately 55%

## 18259 (antisense eGe[5mC]eTe[5mC]eA*dG*dT*dG*dG*dA*d[5mC]*dA*dT*dG*dG*eAeTeGeAeG) [compound 18259]
Rat JNK2 mRNA
  specific modulation of mRNA encoding JNK2 (dose response): specifically modulates levels of mRNA encoding JNK1 and JNK2, respectively

## 21859 (antisense e[5mC]eTe[5mC]eAeT*dG*dA*dT*dG*dG*d[5mC]*dA*dA*dG*d[5mC]*eAeAeTeTeA) [compound 21859]
Rat JNK1 mRNA
  specific modulation of mRNA encoding JNK1 (dose response): specifically modulates levels of mRNA encoding JNK1 and JNK2, respectively

## 101759 (antisense GCTCAGTGGACATGGATGAG; sugars from the 5' end e5 d10 e5, all phosphorothioate, methylation of C not given here) [compound 101759]
Human JNK2 mRNA; 1 uM
  Percent Inhibition of human JNK2 mRNA: 14%
Human JNK2 mRNA; 5 uM
  Percent Inhibition of human JNK2 mRNA: 56%
Human JNK2 mRNA; 20 uM
  Percent Inhibition of human JNK2 mRNA: 92%
